Results taken from patent US8796259B2, “N3-heteroaryl substituted triazoles and N5-heteroaryl substituted triazoles useful as axl inhibitors” (Rigel Pharmaceuticals, Inc., priority 2006, dated 2014).

target: T1, Axl (Homo sapiens, UniProt P30530); assay: Phospho-Akt in-cell Western assay (inhibition of Axl activity, Axl-antibody cross-linking stimulation); format: cell-based; settings: Hela cells, phospho-Akt readout; compounds of formula (Ia), Table 1
T1 construct: endogenous in cells; host or cells: HeLa cells
T1 sequence (P30530 26-894): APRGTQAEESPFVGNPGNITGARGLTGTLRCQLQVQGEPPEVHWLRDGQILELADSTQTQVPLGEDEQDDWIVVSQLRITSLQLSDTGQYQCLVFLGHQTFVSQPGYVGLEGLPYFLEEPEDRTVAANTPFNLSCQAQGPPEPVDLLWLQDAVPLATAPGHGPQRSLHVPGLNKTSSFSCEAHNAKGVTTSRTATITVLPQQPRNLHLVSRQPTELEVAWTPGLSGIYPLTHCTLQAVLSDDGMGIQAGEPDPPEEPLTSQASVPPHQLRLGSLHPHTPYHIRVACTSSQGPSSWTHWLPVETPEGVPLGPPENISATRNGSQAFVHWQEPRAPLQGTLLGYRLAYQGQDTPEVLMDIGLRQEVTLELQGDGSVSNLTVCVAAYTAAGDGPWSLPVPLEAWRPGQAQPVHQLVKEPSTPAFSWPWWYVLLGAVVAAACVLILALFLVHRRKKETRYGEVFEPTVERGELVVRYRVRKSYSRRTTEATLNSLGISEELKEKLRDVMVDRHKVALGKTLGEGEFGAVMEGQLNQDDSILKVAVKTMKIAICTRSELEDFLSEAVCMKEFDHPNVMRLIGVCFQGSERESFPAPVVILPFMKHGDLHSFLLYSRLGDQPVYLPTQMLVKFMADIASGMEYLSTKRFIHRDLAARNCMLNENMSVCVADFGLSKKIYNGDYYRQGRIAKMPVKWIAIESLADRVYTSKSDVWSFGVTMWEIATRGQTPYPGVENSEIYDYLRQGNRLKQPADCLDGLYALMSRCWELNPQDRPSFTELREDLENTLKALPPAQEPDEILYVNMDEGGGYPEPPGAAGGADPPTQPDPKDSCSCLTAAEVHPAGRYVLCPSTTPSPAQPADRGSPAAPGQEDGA
Summary of the method: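 HeLa cells on poly-L-lysine were starved 24 h in 0.5% FCS/DMEM with 500 ng/mL Axl/Fc, pre-treated with compound 1 h at 37 °C, then stimulated 5 min by cross-linked mouse anti-Axl/biotin anti-mouse antibody clusters. After formaldehyde fixation, phospho-Akt was detected by rabbit anti-phospho-Akt and HRP secondary with chemiluminescence read-out.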

Row | SMILES | IC50
1 | Cc1csc2c(-n3nc(Nc4ccc(N5CCN(CC6CC6)[C@@H](C)C5)nc4)nc3N)ncnc12 [compound 116, 1-(7-methyl-thieno[3,2-d]pyrimidin-4-yl)-N^3-(2-(4-cyclo-propylmethyl-3-(S)-methyl-piperazin-1-yl)pyridin-5-yl)-1H-1,2,4-triazole-3,5-diamine] | < 1000 nM
2 | CCN(CC)C1CCN(C/C=C/c2ccc(Nc3nc(N)n(-c4ncnc5c(C)csc45)n3)cn2)C1 (stereo not drawn) [compound 121, 1-(7-methylthieno [3,2-d]pyrimidin-4-yl)-N^3-(2-(3-(3-diethyl-amino-pyrrolidin-1-yl)propen-1-yl)pyridin-5-yl)-1H-1,2,4-triazole-3,5-diamine] | < 1000 nM
3 | Cc1csc2c(-n3nc(Nc4ccc(C=CCN5CCC(N6CCCC6)CC5)nc4)nc3N)ncnc12 [compound 122, 1-(7-methylthieno [3,2-d]pyrimidin-4-yl)-N^3-(2-(3-(4-pyrrolidin-1-yl-piperidin-1-yl)propen-1-yl)pyridin-5-yl)-1H-1,2,4-triazole-3,5-diamine] | < 1000 nM
4 | Cc1csc2c(-n3nc(Nc4ccc(C=CCN5CCN(C)CC5)nc4)nc3N)ncnc12 [compound 123, 1-(7-methylthieno [3,2-d]pyrimidin-4-yl)-N^3-(2-(3-(4-methyl-piperazin-1-yl)propen-1-yl)pyridin-5-yl)-1H-1,2,4-triazole-3,5-diamine] | < 1000 nM
5 | Cc1csc2c(-n3nc(Nc4ccc(C=CCN5CCOCC5)nc4)nc3N)ncnc12 [compound 126, 1-(7-methylthieno [3,2-d]pyrimidin-4-yl)-N^3-(2-(3-(morpholin-4-yl)propen-1-yl)pyridin-5-yl)-1H-1,2,4-triazole-3,5-diamine] | < 1000 nM
6 | Cc1cc(Nc2nc(N)n(-c3cc(-c4ccccc4)ncn3)n2)cnc1N1CCC(N2CCCC2)CC1 [compound 130, 1-(6-phenyl-pyrimidine-4-yl)-N^3-(3-methyl-2-(4-pyrrolidin-1-ylpiperidin-1-yl)pyridin-5-yl)-1H-1,2,4-triazole-3,5-diamine] | < 1000 nM
7 | Cc1csc2c(-n3nc(Nc4cnc(N5CCC(CN6CCCCC6)CC5)nc4)nc3N)nc(Cl)nc12 [compound 131, 1-(2-chloro-7-methylthieno [3,2-d]pyrimidin-4-yl)-N^3-(2-(4-(piperidin-1-ylmethyl)piperidin-1-yl)pyrimidin-5-yl)-1H-1,2,4-triazole-3,5-diamine] | < 1000 nM

The remaining lines, values ahead:

Row | IC50 | SMILES
8 | < 1000 nM | Cc1csc2c(-n3nc(Nc4ccc(N5CCN(CC6CC6)[C@@H](C)C5)nc4)nc3N)nc(Cl)nc12 [compound 117, 1-(2-chloro-7-methylthieno [3,2-d]pyrimidin-4-yl)-N^3-(2-(4-cyclopropyl-methyl-3-(S)-methyl-piperazin-1-yl)pyridin-5-yl)-1H-1,2,4-triazoie-3,5-diamine]
9 | > 20000 nM | Cc1csc2c(-n3nc(Nc4ccc(Br)nc4)nc3N)ncnc12 [compound 118, 1-(7-methylthieno [3,2-d]pyrimidin-4-yl)-N^3-(2-bromopyridin-5-yl)-1H-1,2,4-triazole-3,5-diamine]
10 | < 1000 nM | Cc1csc2c(-n3nc(Nc4ccc(C=CCN5CCCC5)nc4)nc3N)ncnc12 [compound 119, 1-(7-methylthieno [3,2-d]pyrimidin-4-yl)-N^3-(2-(3-(pyrrolidin-1-yl)propen-1-yl)pyridin-5-yl)-1H-1,2,4-triazole-3,5-diamine]
11 | < 1000 nM | Cc1csc2c(-n3nc(Nc4ccc(/C=C/CN5CCC(N(C)C)C5)nc4)nc3N)ncnc12 (stereo not drawn) [compound 120, 1-(7-methylthieno [3,2-d]pyrimidin-4-yl)-N^3-(2-(3-(3-dimethyl-amino-pyrrolidin-1-yl)propen-1-yl)pyridin-5-yl)-1H-1,2,4-triazole-3,5-diamine]
12 | < 1000 nM | Cc1csc2c(-n3nc(Nc4ccc(C=CCN5CCN(C(C)C)CC5)nc4)nc3N)ncnc12 [compound 124, 1-(7-methylthieno [3,2-d]pyrimidin-4-yl)-N^3-(2-(3-(4-isopropyl-piperazin-1-yl)propen-1-yl)pyridin-5-yl)-1H-1,2,4-triazole-3,5-diamine]
13 | < 1000 nM | Cc1csc2c(-n3nc(Nc4ccc(C=CCN5CCN(C6CCCC6)CC5)nc4)nc3N)ncnc12 [compound 125, 1-(7-methylthieno [3,2-d]pyrimidin-4-yl)-N^3-(2-(3-(4-cyclopentyl-piperazin-1-yl)propen-1-yl)pyridin-5-yl)-1H-1,2,4-triazole-3,5-diamine]
14 | < 1000 nM | Cc1csc2c(-n3nc(Nc4ccc(C=CCN5CCCCC5)nc4)nc3N)ncnc12 [compound 127, 1-(7-methylthieno [3,2-d]pyrimidin-4-yl)-N^3-(2-(3-(piperidin-1-yl)propen-1-yl)pyridin-5-yl)-1H-1,2,4-triazole-3,5-diamine]
15 | < 1000 nM | Cc1csc2c(-n3nc(Nc4ccc(C=CCN5CCC(N6CCN(C)CC6)CC5)nc4)nc3N)ncnc12 [compound 128, 1-(7-methylthieno [3,2-d]pyrimidin-4-yl)-N^3-(2-(3-(4-(4-methyl-piperazin-1-yl)piperidin-1-yl)propen-1-yl)pyridin-5-yl)-1H-1,2,4-triazole-3,5-diamine]
16 | < 1000 nM | Cc1csc2c(-n3nc(Nc4ccc(C=CCN5CCC(N6CCCCC6)CC5)nc4)nc3N)ncnc12 [compound 129, 1-(7-methylthieno [3,2-d]pyrimidin-4-yl)-N^3-(2-(3-(4-piperidin-1-ylpiperidin-1-yl)propen-1-yl)pyridin-5-yl)-1H-1,2,4-triazole-3,5-diamine]

same assay, conditions: Hela cells, phospho-Akt readout; compounds of formula (Ib), Table 2

Row | IC50 | SMILES
17 | > 20000 nM | Cc1cc(Nc2nc(N)nn2-c2nnc(C)c3ccsc23)cnc1N1CCN([C@H]2C[C@@H]3CC[C@H]2C3)CC1 [compound 132, 1-(4-methylthieno[2,3-d]pyridazin-7-yl)-N^5-(2-(4-(1S,2S,4R)-bicyclo[2.2.1]heptan-2-ylpiperazin-1-yl)-3-methylpyridin-5-yl)-1H-1,2,4-triazole-3,5-diamine]
18 | < 1000 nM | Cc1csc2c(-n3nc(N)nc3Nc3ccc(C=CCN4CCC(N5CCN(C)CC5)CC4)nc3)ncnc12 [compound 133, 1-(7-methylthieno[3,2-d]pyrimidin-4-yl)-N^5-(2-(3-(4-(4-methylpiperazin-1-yl)piperidin-1-yl)propen-1-yl)pyridin-5-yl)-1H-1,2,4-triazole-3,5-diamine]
